This note sets out measurements from patent US20120232062A1, “AZAINDAZOLES TO TREAT FLAVIVIRIDAE VIRUS INFECTION” (EIGER BIOPHARMACEUTICALS, INC., priority 2009, published 2012).

Molecules are shown by their SMILES. Like-named read-outs stand apart in the source and are kept apart here.

In the experiment the test system is HCV genotype 1b. The experiment can be described thus: HCV 1b replicon luciferase assay. Type of experiment: cell-based. The conditions noted are these: Table 1, Huh7 HCV 1b replicon, luciferase reporter, 48 hours, read-out: 1b EC50. The text has this: A suitable 1b HCV RNA replicon assay uses the Huh7 cell line which contains an HCV 1b RNA replicon with a stable luciferase (LUC) reporter. This construct contains modifications that make the cell line more robust and provides stable LUC expression for antiviral screening. The LUC reporter is used as an indirect measure of HCV replication. The activity of the LUC reporter is directly proportional to HCV RNA levels and positive control antiviral compounds behave comparably using LUC endpoints. […]
Fresh growth medium is prepared just before use. The container used in the procedure is a 10 cm diameter culture dish. HCV replicon reporter cell lines are used. Prepare complete medium: add FBS and appropriate additives as described in “Culture Media”, below. Pre-warm the medium in a 37° C. thermostat water bath. Remove the dish from a 37° C. CO2 incubator. Check the cell name and complete medium and passage number marked on the dish. Aspirate the medium carefully and add 1 ml PBS to rinse the cells. Remove and discard the solution and add 1 ml of 0.25% Trypsin/0.02% EDTA. Rinse the cells with the added Trypsin/EDTA to ensure all the cells have been rinsed. Remove the Trypsin/EDTA with a vacuum pump and incubate at 37° C. for 3-5 minutes. Examine the cell morphology under an inverted microscope to confirm that a single cell suspension is clearly visible. Add 3 ml of complete medium to the dish and suspend the cell by gentle pipetting. Count the cell numbers with a hematometer. Adjust cell density to 100 k/ml by adding appropriate volume of the complete medium. Add 100 μl of cell suspension to each well of a 96-well white plate; the cell density is thus 10 k per well. Mark the plate with cell name, passage number, seeding density, date and the name of the operator. Place the 96-well assay plate in 37° C. 5% CO2 incubator for 24 hours.
Compounds are prepared or provided at 25 mM in 100% DMSO. This is the compound stock solution. The dilution procedure should be performed in a cell culture hood. Dispense the stock solution into the second column of a 96-well plate. Prepare 9-step (10 concentrations total), 5-fold serial dilutions by transferring 10 μA of the compound into the next well containing 40 μA of DMSO. Repeat for all compounds. Aspirate 2 μl of the above compound solution from each well and add into 198 μl complete media using a 12-channel pipetter to obtain the 10-fold concentration compound solution with 1% DMSO, mix well.
Remove the 96-well assay plate from the 37° C./5% CO2 incubator, examine the cell morphology under an inverted microscope. In a cell culture hood, add 10 μl of the 10× concentration compounds solution into each well on the 96-well assay plate. All compound's dose responses are done in duplicate. The starting final concentration of the compounds is 25 μM, and DMSO final concentration 0.1%. Mark the plate with compound code(s) and concentrations. Place the 96-well assay plate into CO2 incubator for 48 hours. Add 30 μl of Stead-Glo Luciferase System (Promega) reagent to each well and mix by gentle shaking on a plate shaker for 5 minutes to allow throughout cell lysis. Measure the luminescence with Envision (Perkin Elmer) with an integration time of 2 seconds. Record and analyze the data.
The cell culture media is DMEM complete: DMEM (Life Technologies #41965-039) supplemented with 10% FCS, 2 mM Glutamin (Life Technologies #25030-024), Penicillin (100 IU/ml)/Streptomycin (100 μg/ml) (Life Technologies #15140-114) and 1× nonessential amino acids (Life Technologies #11140-035). G418 (“Geneticin”, Life Technologies): concentrations are given as weight per volume of the original substance. Specific activity of a typical batch is ca. 700 μg/mg as stated by the manufacturer. […] Therefore each new batch of G418 should be tested individually e.g. in an electroporation experiment using different selection conditions (0.2-1 mg/ml).

As to `Cc1ccc(CN2CCC(NC(=O)c3nn(C)c4nc(N5CCCCCC5)ccc34)CC2)cc1` [compound 1039], the EC50 is 2.6 µM.
On to `Cn1nc(-c2nnc(C3CCNCC3)o2)c2ccc(N3CCCCCC3)nc21` [compound 1125], for which the EC50 (Hepatitis C virus, Huh-7, 48 h) stood at 0.84 µM.
Regarding `CC(C)CN1CCC(NC(=O)c2nn(C)c3nc(NC4CCCCCCC4)ccc23)CC1` [compound 1473], the concentration giving a half-maximal response (EC50) (Hepatitis C virus, Huh-7, 48 h) came out at 0.89 µM.
On the same count and under the same terms, as for `Cn1nc(-c2nnc(C3CCN(CC(F)F)CC3)o2)c2ccc(N3CCCCCCC3)nc21` [compound 1323], the figure is 4.4 µM.
Take `Cn1nc(C(=O)NC2CC3CCCC(C2)N3)c2ccc(N3CCCCCC3)nc21` (stereo not drawn) [compound 831]: the EC50 was 2.7 µM.
For `Cn1nc(CN[C@H]2CCNC2)c2ccc(N3CCCCCC3)nc21` [compound 908], where the note is “Hepatitis C virus, Huh-7, 48 h”, the EC50 is 8.7 µM.
Consider `Cn1nc(C(=O)NC2CCNCC2)c2ccc(OCc3ccccc3-c3cccnc3)nc21` [compound 1085], for which the EC50 (Hepatitis C virus, Huh-7, 48 h) stood at 2.2 µM.
Take `C=CCCCCn1nc(C(=O)NC2CCN(CC=C)CC2)c2ccc(N3CCCCCC3)nc21` [compound 1105]: for the setting “Hepatitis C virus, Huh-7, 48 h”, the EC50 was found to be 7.5 µM.
With `Cn1nc(-c2cnc(C3CCN(CC(F)F)C3)s2)c2ccc(N3CCCCCCC3)nc21` (stereo not drawn) [compound 1269], the EC50 (Hepatitis C virus, Huh-7, 48 h) was found to be 4.6 µM.
Consider `Cn1nc(-c2ncc(-c3ccc(Br)cc3)[nH]2)c2ccc(N3CCCCCC3)nc21` [compound 1069], for which the EC50 (Hepatitis C virus, Huh-7, 48 h) is 8.3 µM.
Same read-out and setting: as for `Cn1nc(-c2nnc([C@@H]3CCCN3CCN3CCCCC3)o2)c2ccc(N3CCCCCCC3)nc21` [compound 1364], the figure is 2.2 µM; as for `Cn1nc(CNC2CCCNC2)c2ccc(N3CCCCCC3)nc21` (stereo not drawn) [compound 811], 2.9 µM.
The same measure, in the same setting: as for `Cn1nc(C(=O)NC2CCN(CC3CCCC3)CC2)c2ccc(N3CCCCCCC3)nc21` [compound 1305], the figure is 0.49 µM; as for `Cn1nc(C(=O)NC2CCN(CCC(F)(F)F)CC2)c2ccc(N3CCCCCCC3)nc21` [compound 1301], 5.1 µM.
Same read-out and setting: as for `CCC(CC)Oc1ccc2c(NC(=O)C3CCNCC3)nn(C)c2n1` [compound 962], the figure is 4.4 µM; as for `O=C(NC1CCNCC1)c1nn(Cc2cccc(Cl)c2)c2nc(N3CCCCCC3)ccc12` [compound 854], 7.2 µM.
On to `Cn1nc(-c2nnc(C3CCN(CC4CCCCC4)C3)o2)c2ccc(N3CCCCCCC3)nc21` (stereo not drawn) [compound 1365], for which the EC50 (Hepatitis C virus, Huh-7, 48 h) was found to be 2.6 µM.
Consider `Cn1nc(CN2CCCC2CO)c2ccc(N3CCCCCC3)nc21` (stereo not drawn) [compound 791], for which the EC50 (Hepatitis C virus, Huh-7, 48 h) is 8.5 µM.
On the same count and under the same terms, as for `Cn1nc(CNC2CCNCC2)c2ccc(N3CCCCCC3)nc21` [compound 976], the figure is 4.7 µM.
The same measure, in the same setting: as for `Cn1nc(C(=O)NC2CCN(CC(F)F)CC2)c2ccc(NC3CCCCCCC3)nc21` [compound 1472], the figure is 1.4 µM.
On to `CCC(CC)Oc1ccc2c(NC(=O)c3ccc(C)s3)nn(C)c2n1` [compound 963], for which the EC50 came out at 2.7 µM.
Consider `O=C(NC1CCN(CCN2CCCCC2)CC1)c1nn(CC2CC2)c2nc(N3CCCCCC3)ccc12` [compound 1489], for which the EC50 (Hepatitis C virus, Huh-7, 48 h) is 0.55 µM.
Regarding `Cn1nc(C(=O)NC2CCN(CCC3CCCCC3)CC2)c2ccc(N3CCCCCCC3)nc21` [compound 1299], the EC50 (Hepatitis C virus, Huh-7, 48 h) worked out at 0.31 µM.
Take `Cn1nc(COCC2CCCNC2)c2ccc(N3CCCCCC3)nc21` (stereo not drawn) [compound 986]: under “Hepatitis C virus, Huh-7, 48 h”, the EC50 was 7.9 µM.
For the compound `CCC(CC)Oc1ccc2c(NC(=O)[C@H]3CC[C@@H](N)CC3)nn(C)c2n1` [compound 951], for the setting “Hepatitis C virus, Huh-7, 48 h”, the EC50 was 7.8 µM.
The same measure, in the same setting: as for `Cn1nc(-c2cnc(C3CCCNC3)s2)c2ccc(N3CCCCCCC3)nc21` (stereo not drawn) [compound 1248], the figure is 4.1 µM; as for `Cn1nc(C(=O)NC2CCNCC2)c2ccc(OC3CCCC3)nc21` [compound 912], 6.9 µM.
Regarding `CCC(CC)Oc1ccc2c(NC(=O)c3ccccc3)nn(C)c2n1` [compound 942], for the setting “Hepatitis C virus, Huh-7, 48 h”, the EC50 was 8.6 µM.
Still for that read-out and setting: as for `CCCn1nc(C(=O)NC2CCNCC2)c2ccc(N3CCCCCC3)nc21` [compound 858], the figure is 3.3 µM; as for `CCC(CC)Oc1ccc2c(C(=O)NC3CCCNC3)nn(Cc3ccc(Cl)cc3)c2n1` (stereo not drawn) [compound 794], 2.8 µM; as for `Cn1nc(C(=O)NC2CCNCC2)c2ccc(OCc3ccccc3-c3cccc(Cl)c3)nc21` [compound 1088], 1.4 µM.
On to `Cn1nc(C(=O)NCC2CCCNC2)c2ccc(N3CCCCCC3)nc21` (stereo not drawn) [compound 872], for which the EC50 (Hepatitis C virus, Huh-7, 48 h) stood at 8.1 µM.
Turning to `Cn1nc(C(=O)NC2CCN(CCCN3CCCCC3)CC2)c2ccc(N3CCCCCC3)nc21` [compound 1041], the EC50 (Hepatitis C virus, Huh-7, 48 h) turned out to be 1.1 µM.
Still for that read-out and setting: as for `Cn1nc(C(=O)N[C@@H]2C[C@H]3CC[C@@H](C2)N3)c2ccc(N3CCCCCC3)nc21` [compound 979], the figure is 4.9 µM.
For `CN(Cc1ccccc1)c1ccc2c(C(=O)NC3CCNCC3)n[nH]c2n1` [compound 777], the EC50 (Hepatitis C virus, Huh-7, 48 h) is 2 µM.
In the case of `COC[C@@H]1CCCN1CCN1CCC(NC(=O)c2nn(C)c3nc(N4CCCCCC4)ccc23)CC1` [compound 1556], for the setting “Hepatitis C virus, Huh-7, 48 h”, the EC50 amounted to 2.9 µM.
With `Cn1nc(C(=O)NC2CCNCC2)c2cc(NC3CCCCC3)cnc21` [compound 991], under “Hepatitis C virus, Huh-7, 48 h”, the EC50 was found to be 9 µM.
On the same count and under the same terms, for `Cn1nc(NC(=O)[C@H]2CC[C@@H](N)CC2)c2ccc(N3CCCCCC3)nc21` [compound 844] the value was 6.6 µM; for `Cn1nc(-c2cnc(C(=O)NCC3CCNCC3)s2)c2ccc(N3CCCCCC3)nc21` [compound 1097], 3.4 µM; for `C=CCCCCCCN1CCC(NC(=O)c2nn(C)c3nc(N4CCCCCC4)ccc23)CC1` [compound 1103], 0.3 µM.
Regarding `Cn1nc(C(=O)NC2CCNCC2)c2ccc(OC3CCCCC3)nc21` [compound 817], the EC50 (Hepatitis C virus, Huh-7, 48 h) was determined as 3.4 µM.
On the same count and under the same terms, for `CC(C)CNc1ccc2c(C(=O)NC3CCNCC3)nn(C)c2n1` [compound 688] the value was 4.9 µM.
For `CN(c1ccc2c(C(=O)NC3CCNCC3)nn(C)c2n1)C1CCCCC1` [compound 892], the EC50 (Hepatitis C virus, Huh-7, 48 h) came to 1.5 µM.
Still for that read-out and setting: as for `Nc1nn(Cc2ccc(Cl)cc2)c2nc(N3CCCCCC3)ccc12` [compound 759], the figure is 8.6 µM; as for `Cn1nc(CCCN2CCC[C@@H]2CO)c2ccc(N3CCCCCCC3)nc21` [compound 1464], 2 µM.
Regarding `CC(C)Cn1nc(C(=O)NC2CCN(CCN3CCCCC3)CC2)c2ccc(N3CCCCCC3)nc21` [compound 1487], the EC50 (Hepatitis C virus, Huh-7, 48 h) was 0.83 µM.
The same measure, in the same setting: for `Cn1nc(C(=O)NC2CCNCC2)c2ccc(OCc3ccccc3-c3nc4ccccc4s3)nc21` [compound 1066] the value was 2.5 µM.
Consider `Cn1nc(C(=O)NC2CCN(Cc3ccncc3)CC2)c2ccc(N3CCCCCC3)nc21` [compound 1043], for which the EC50 (Hepatitis C virus, Huh-7, 48 h) stood at 1.2 µM.
`Cn1nc(NC(=O)c2ccncc2Cl)c2ccc(N3CCCCCC3)nc21` [compound 833]: under “Hepatitis C virus, Huh-7, 48 h”, the EC50 came to 2.9 µM.
Consider `CC1CC(NC(=O)c2nnc3n(Cc4ccc(Cl)cc4)c(N4CCCCCC4)ccc2-3)CCN1` (stereo not drawn) [compound 713], for which the EC50 (Hepatitis C virus, Huh-7, 48 h) came to 6.1 µM.
As for `CCN(c1ccc2c(C(=O)NC3CCN(CC4CCCCC4)CC3)nn(C)c2n1)C1CCCCCC1` [compound 1183], the EC50 (Hepatitis C virus, Huh-7, 48 h) came to 0.746 µM.
Turning to `Cn1nc(C(=O)NC2CCN(CC3CC3)CC2)c2ccc(NC3CCCCCCC3)nc21` [compound 1478], the EC50 (Hepatitis C virus, Huh-7, 48 h) is 0.56 µM.
Consider `C[C@@H]1CCCN1CCCc1nn(C)c2nc(N3CCCCCCC3)ccc12` [compound 1499], for which the EC50 (Hepatitis C virus, Huh-7, 48 h) was 4 µM.
Consider `Cn1nc(C(=O)NC2CCN(C3CCCC3)CC2)c2ccc(N3CCCCCC3)nc21` [compound 1040], for which, under “Hepatitis C virus, Huh-7, 48 h”, the EC50 came to 2.8 µM.
On to `CCC(CC)Oc1ccc2c(COCCN3CCCCC3)nn(Cc3ccc(Cl)cc3)c2n1` [compound 792], for which the EC50 (Hepatitis C virus, Huh-7, 48 h) is 4.6 µM.
As for `O=C(NC1CCNCC1)c1nn(-c2ccccc2)c2nc(N3CCCCCC3)ccc12` [compound 1350], for the setting “Hepatitis C virus, Huh-7, 48 h”, the EC50 turned out to be 3.8 µM.
On the same count and under the same terms, for `Cn1cc(-c2nn(C)c3nc(N4CCCCCC4)ccc23)nc1CC1CCNCC1` [compound 1126] the value was 7.7 µM.
